# Measured values reported in ChEMBL document CHEMBL1156829 (Proc Natl Acad Sci U S A, 2008).
# pEC50: −log10 of the molar value.
# Assays:
# [1] = NOVARTIS: Cytotoxicity against human hepatocellular carcinoma cell line (Huh7); type: toxicity, cell-based, Huh-7; settings: Huh7 cells (hepatocellular carcinoma cell line)
# Plasmodium falciparum [2] = experiment: NOVARTIS: Inhibition of Plasmodium falciparum W2 (drug-resistant) proliferation in erythrocyte-based infection assay; type: functional, organism-based; settings: Plasmodium falciparum, W2; read-out: EC50
# Plasmodium falciparum [3] = experiment: NOVARTIS: Inhibition of Plasmodium falciparum 3D7 (drug-susceptible) proliferation in erythrocyte-based infection assay; type: functional, organism-based; settings: Plasmodium falciparum, 3D7
Compound,CC50 [1],pEC50 (Plasmodium falciparum [2]),pEC50 (Plasmodium falciparum [3])
CCN1CCN(c2cc(C)c3cc(NC(=O)c4cncc(Br)c4)ccc3n2)CC1,19.4 µM,6.39,6.58
C(=NNc1nc2ccccc2[nH]1)c1cccc(Oc2ccccc2)c1,> 100 µM,6.02,6.52
COC1=CC(C)=C[C@@H](C)[C@@H](O)[C@H](C)CC(C)=CC=C[C@H](OC)[C@@H](C(C)C(O)[C@H](C)[C@@]2(O)C[C@@H](O)[C@H](C)[C@@H](C(C)C)O2)OC1=O (some centres undefined),> 10 µM,7.95,5.83
COC(=O)c1sc2nc(CN(C)CC(C)C)ccc2c1NC(=O)c1ccc(C)s1,> 100 µM,5.40,< 4.90
CCc1cccc(NC(=O)N2CCN(C(=O)c3nc(-c4ccccc4)nc(C)c3C(=O)OC(C)C)CC2C)c1 (centres undefined),> 10 µM,> 7.85,6.14
O=C(NCc1ccccc1)c1cccc2c(Br)cccc12,> 10 µM,5.83,< 5.96
NC1(C(=O)O)CCc2cc(C(=O)O)ccc21 (centres undefined),> 10 µM,6.08,< 5.94
CCC(NC1CCCCC1)c1nc2ccccc2c(=O)n1C (centres undefined),> 10 µM,6.05,5.96
CN(C)c1ccc(NC(=O)c2cccnc2C(=O)O)cc1,7.84 µM,6.08,6.49
CN(C)CCN(C)Cc1cc(Br)cs1,> 100 µM,5.99,< 5.63
CC1CCCCN1CCCNc1ncc(C(=O)NCc2ccccc2)c(NCCc2ccccc2)n1 (centres undefined),> 10 µM,< 6.06,6.61
CC(=O)CSc1nnc(-c2ccncc2)n1C,> 12.7 µM,6.51,< 5.90
CN(C)CCCNc1ncnc2c1[nH]c1ccc(Br)cc12,26.5 µM,6.64,7.32
CN(C)C(=O)NCCCCNc1ccnc2cc(Cl)ccc12,> 10 µM,6.22,6.00
CC(C)Sc1nc2c(c(=O)n1Cc1ccco1)C1(CCCCC1)Cc1ccccc1-2,> 100 µM,< 4.90,5.02
CCOc1ccc(C(=O)Cn2ccc(=NCc3ccccc3)cc2)cc1[N+](=O)[O-],20.1 µM,6.92,7.16
CCOC(=O)N1CCN(C(=O)CSc2nc(-c3ccc(Cl)cc3)cn2-c2ccc(C)cc2)CC1,> 10 µM,< 5.90,6.15
COc1cc(NC(=O)C=Cc2ccccc2Cl)cc(OC)c1OC,47.8 µM,6.52,6.26
CC(=O)N(C1=C(N2CCOCC2)C(=O)c2ccccc2C1=O)c1ccc(C(C)C)c(C)c1,9.15 µM,7.06,7.59
CCCN(CCC)C(=O)c1c[nH]c2ccc(S(=O)(=O)N(C)c3ccc(F)cc3)cc2c1=O,> 100 µM,5.18,< 4.90
Cc1cc(Nc2ccc(OCc3ccccc3)cc2)nc2cc(O)ccc12,17.2 µM,7.93,7.13
Clc1ccc2c(N3CCC(n4cccc4)CC3)ccnc2c1,> 100 µM,5.98,5.99
Cc1ccn2c(NC(C)(C)CC(C)(C)C)c(-c3ccccc3OC(=O)Cc3ccccc3)nc2c1,> 10 µM,7.66,6.03

Compound,CC50 [1],pEC50 (Plasmodium falciparum [2]),pEC50 (Plasmodium falciparum [3])
Cc1c(Cl)cccc1NC(=O)C1C(C(=O)O)C2C=CC1C21CC1 (centres undefined),> 10 µM,5.85,5.90
COc1ccc(C(=O)NC(c2ccc(C)cc2)c2cc(Cl)c3cccnc3c2O)cc1 (centres undefined),> 100 µM,5.57,5.62
CCN(CC)c1cc2oc3cc(=[N+](CC)CC)ccc-3nc2c2ccccc12,39.8 µM,6.08,6.06
O=C(c1ccc(N2CC3CC(C2)c2cccc(=O)n2C3)c(NS(=O)(=O)c2ccc3c(c2)OCCO3)c1)N1CCN(c2ccccn2)CC1 (centres undefined),> 100 µM,6.71,5.70
CC(=O)N1c2ccccc2CC1C(=O)NCc1cccc(Cl)c1 (centres undefined),> 100 µM,< 5.19,< 4.90
Cc1cccc(NC(=O)CCCn2c(=O)c3cccn3c3ccccc32)c1C,> 100 µM,6.04,6.11
Cc1ccccc1Nc1sc(C(=O)c2ccc([N+](=O)[O-])cc2)c(N)c1C(=O)Nc1ccccc1,> 10 µM,< 5.81,< 5.92
COc1cccc(-c2cc(C(=O)Nc3cc(Cl)ccc3O)on2)c1,> 100 µM,7.19,6.04
Cc1ccccc1Oc1cc(NC(=O)c2cc3n(n2)C(C(F)(F)F)CC(c2ccccc2)N3)cc(Oc2ccccc2C)c1 (centres undefined),> 100 µM,6.42,6.44
COc1ccc(Nc2nc(NN=Cc3cccc(Cl)c3)nc(Nc3ccc([N+](=O)[O-])cc3)n2)cc1,> 100 µM,6.14,6.22
CCOc1ccc(CN(C(=O)COc2ccc(Cl)cc2)C(C)CCCN(CC)CC)cc1 (centres undefined),18.9 µM,5.88,6.41
CC(C)(C)CC(C)(C)Nc1c(-c2ccccc2OC(=O)C2CCCCC2)nc2ccccn12,> 10 µM,8.00,6.46
COc1cc(NC(C)CCCN(Cc2ccccc2OC)C(=O)c2ccc(Cl)c([N+](=O)[O-])c2)c2ncccc2c1 (centres undefined),> 3.91 µM,> 7.74,5.92
COc1cccc(CN2CCN(C(c3ccccc3)c3ccccc3)CC2)c1O,45.2 µM,7.30,6.47
CCCOC(=O)C1=C(C)NC2=C(C(=O)CC(c3ccc(OC)c(OC)c3)C2)C1c1ccccc1F (centres undefined),> 100 µM,8.27,8.17
CCOC(=O)C1CCN(C(=O)c2c(C)oc3c2C(=O)c2ccccc2C3=O)CC1,22.2 µM,6.99,6.70
CC(c1nc2ccccc2c(=O)n1C)N1CCN(C(=O)C(C)(C)C)CC1 (centres undefined),> 10 µM,6.72,6.73
COc1ccc2nc(Nc3nc(-c4ccccn4)cs3)sc2c1,7.31 µM,7.03,7.04
CCCCc1ccc(C(=O)NCCCN(C(=O)Nc2ccc([N+](=O)[O-])cc2)c2ccccc2)cc1,2.69 µM,5.92,< 5.90
Cc1cc(N2CCN(C/C=C/c3ccccc3)CC2)n2c(nc3ccccc32)c1C#N,> 10 µM,6.40,6.38
CN(CCCNc1ccnc2cc(Cl)ccc12)C(=O)c1cc(Cl)cc(Cl)c1,> 10 µM,6.34,6.63
COc1ccc(C2N(Cc3ccccc3)c3ccccc3N2Cc2ccccc2)cc1,53 µM,6.37,6.25
CCOc1ccc(S(=O)(=O)N=C2C=C(Nc3ccc(O)cc3)C(=O)c3ccccc32)cc1,7.05 µM,6.87,6.80

Compound,CC50 [1],pEC50 (Plasmodium falciparum [2]),pEC50 (Plasmodium falciparum [3])
N#CCCN(CC1CCCO1)C(=O)Nc1ccc(Cl)c(C(F)(F)F)c1 (centres undefined),> 10 µM,< 6.28,< 5.99
CC[n+]1c(C=Cc2ccc(Cl)cc2)ccc2ccccc21,19.5 µM,5.90,5.43
O=C1C(NC2CCCCC2)=C(N2CCOCC2)C(=O)c2ccccc21,46.1 µM,6.94,6.86
Cc1cc(Nc2ccc(I)cc2)n2ncnc2n1,> 100 µM,5.44,5.81
C[n+]1ccccc1C=Cc1ccc(Br)cc1,95.2 µM,6.66,6.45
CCOc1ccc(CCNC(=O)c2cccs2)cc1OCC,> 100 µM,6.25,6.05
Cc1cc(N2CCN(Cc3ccccc3)CC2)n2c(nc3ccccc32)c1C#N,> 100 µM,6.08,6.49
CC(Sc1nnc2c3ccccc3n(Cc3ccccc3)c2n1)C(=O)N1CCN(C(=O)C(c2ccccc2)c2ccccc2)C(C)C1 (centres undefined),> 10 µM,6.90,6.04
COc1cccc(Cn2c3cc(C)sc3c3cnn(C)c(=O)c32)c1,68.6 µM,6.23,6.30
CN(CCCNc1ccc(C(=O)Nc2ccc(C(F)(F)F)cc2)cc1[N+](=O)[O-])Cc1ccccc1,> 100 µM,6.14,6.50
O=C(c1ccccc1)c1cc(Cl)ccc1NCCBr,> 10 µM,< 6.02,< 5.90
O=C(CN1CCCC1)N1N=C(c2cccs2)CC1c1ccc(F)cc1 (centres undefined),> 100 µM,5.92,< 4.90
C[C@@H]1CC[C@H]2[C@@H](C)C(=O)O[C@@H]3O[C@@]4(C)CC[C@@H]1[C@]32OO4 [ARTEMISININ],> 10 µM,7.99,7.37
COCOc1ccc(-c2nc(-c3ccncc3)cnc2N)cc1,> 10 µM,< 5.84,5.84
Brc1ccc(-c2cn3c([n+]2Cc2ccccc2)SCCC3)cc1,53.3 µM,5.61,6.38
Cc1ccc(-n2nnnc2SCc2nc(-c3cccc([N+](=O)[O-])c3)no2)c(C)c1,> 100 µM,5.73,< 5.33
COc1cc(OC)c(NC(=O)C2c3ccccc3C(=O)N(C)C2c2cccs2)cc1Cl (centres undefined),> 100 µM,6.51,6.49
O=[N+]([O-])c1ccc(N2CCCN(C(=S)Nc3ccccc3)CC2)nc1,> 100 µM,7.10,7.04
COc1ccc(C(NC(=O)COc2ccccc2)c2cc(Cl)c3cccnc3c2O)cc1 (centres undefined),> 100 µM,6.04,5.45
CC1CCC(Nc2ccnc3cc(Cl)ccc23)CC1 (centres undefined),> 10 µM,6.03,6.07
COc1ccc(NC(=O)c2cc3cc(C4(O)CCN(CC5CC=CCC5)CC4)ccc3o2)cc1 (centres undefined),25.1 µM,6.08,6.42
CCn1ccccc1=Nc1cccc[n+]1CC,> 73.2 µM,5.93,5.82
